Data on ten compounds can be found in PubChem BioAssay (NCI).

Test systems include 786-0 renal; BT-549 breast; EKVX NSCLC; HCT-15 colon; K-562 leukemia; MCF7 breast; NCI-H226 lung; NCI-H23 lung; OVCAR-3 ovarian; SF-295 CNS; SN12C renal; U251 CNS; UACC-62 melanoma; HL-60(TB) leukemia; HS 578T breast.
Common to all, as to assay: NCI tumour cell line growth inhibition, 48 h

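Where inhibition never reached the appropriate level, the endpoint shown equals the highest concentration tested. Otherwise, values were interpolated linearly from a five-concentration, 48-hour dose response in 96-well plates. TGI: total growth inhibition.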

Take `O=C(OCC1CC(C2(O)CCCCC2)C(=O)O1)c1ccccc1` (centres undefined): the TGI in the test with 786-0 renal, in the test on BT-549 breast, in the test with EKVX NSCLC, in the test on HCT-15 colon, in the test with K-562 leukemia and with MCF7 breast was greater than 100 µM in each case. The TGI in the test with NCI-H226 lung, in the test on NCI-H23 lung, with OVCAR-3 ovarian, in the test with SF-295 CNS, with SN12C renal and with U251 CNS was greater than 100 µM in each case. The compound also showed a TGI in the test with UACC-62 melanoma greater than 100 µM.
With `O=C(O)c1ccc(Nc2nc3ccc(C(F)(F)F)cc3nc2C(=O)O)cc1`, the TGI in the test on 786-0 renal, in the test on EKVX NSCLC, with HCT-15 colon, in the test with HL-60(TB) leukemia, in the test on HS 578T breast and with K-562 leukemia was greater than 100 µM each time. The TGI with MCF7 breast, in the test with NCI-H226 lung, in the test with NCI-H23 lung, with OVCAR-3 ovarian, in the test with SF-295 CNS and with SN12C renal was greater than 100 µM in each case. Moreover, the TGI in the test on U251 CNS and in the test with UACC-62 melanoma was greater than 100 µM in each case.
`O=C(/C=C/c1ccc(Cl)cc1)c1nc2ccccc2[nH]1`: the TGI was 29.6 µM with 786-0 renal; greater than 100 µM in the test on BT-549 breast; 83.3 µM in the test with EKVX NSCLC; 61.4 µM in the test on HCT-15 colon; greater than 100 µM in the test on HS 578T breast; 30.7 µM in the test on K-562 leukemia. Moreover, the TGI in the test with MCF7 breast was 9.04 µM; in the test with NCI-H226 lung, greater than 100 µM; in the test on NCI-H23 lung, greater than 100 µM; with OVCAR-3 ovarian, 49.1 µM; in the test with SF-295 CNS, greater than 100 µM; in the test on SN12C renal, greater than 100 µM. In the test with UACC-62 melanoma, this compound gave a TGI greater than 100 µM.
`S=C1C(CCCOCc2ccccc2)C2CCCC23CC2(CCN13)OCCS2` (centres undefined): the TGI with 786-0 renal, in the test with EKVX NSCLC, in the test with HCT-15 colon, with HL-60(TB) leukemia, in the test with HS 578T breast and in the test with K-562 leukemia was greater than 10 µM each time. In addition, the TGI in the test with MCF7 breast, in the test on NCI-H226 lung, with NCI-H23 lung, with OVCAR-3 ovarian, in the test on SF-295 CNS and with SN12C renal was greater than 10 µM throughout. Further, the TGI in the test with U251 CNS was greater than 10 µM.
Consider `CN(C)C1(N(C)C)Oc2c(c(=O)n(C)c(=O)n2C)C(c2ccc(F)cc2)C1(F)F` (centres undefined), for which the TGI in the test on 786-0 renal, in the test on BT-549 breast, with EKVX NSCLC, in the test with HCT-15 colon, in the test with MCF7 breast and in the test with NCI-H226 lung was greater than 100 µM in each case. Further, the TGI with NCI-H23 lung, with OVCAR-3 ovarian, in the test on SF-295 CNS, with U251 CNS and with UACC-62 melanoma was greater than 100 µM throughout.
For the compound `N#Cc1c2c(c(Nc3cccc(C(F)(F)F)c3)n3c1nc1ccccc13)CCCC2`, the TGI was 27.9 µM with 786-0 renal; 95.3 µM with BT-549 breast; 62.4 µM in the test with EKVX NSCLC; greater than 100 µM with HCT-15 colon; 63.2 µM with NCI-H226 lung; 89.2 µM in the test with NCI-H23 lung. The TGI in the test on OVCAR-3 ovarian is greater than 100 µM; in the test with SF-295 CNS, greater than 100 µM; in the test with SN12C renal it was 88.8 µM; in the test on U251 CNS, 23.7 µM.
For the compound `O=C(O)CCC1(CCC(=O)O)CCCCCCCCC(CCC(=O)O)(CCC(=O)O)C(=O)C1=O`, the TGI with 786-0 renal, in the test on EKVX NSCLC, in the test on HCT-15 colon, in the test on HL-60(TB) leukemia, in the test with HS 578T breast and with K-562 leukemia was greater than 100 µM each time. The TGI with MCF7 breast, with NCI-H226 lung, in the test with NCI-H23 lung, with OVCAR-3 ovarian, in the test with SF-295 CNS and in the test on SN12C renal was greater than 100 µM each time. Further, the TGI in the test on U251 CNS and in the test on UACC-62 melanoma was greater than 100 µM throughout.
For the compound `CCCCCCc1cc2cc(-c3cn4ccccc4n3)c(=O)oc2cc1O`, the TGI in the test on 786-0 renal was 4.76 µM; in the test on BT-549 breast, 22.1 µM; with EKVX NSCLC, 45.4 µM; with HCT-15 colon, 20.9 µM; in the test on HL-60(TB) leukemia, greater than 100 µM; in the test with K-562 leukemia, greater than 40.3 µM. The TGI with MCF7 breast came to 17.5 µM; in the test on NCI-H226 lung it was 34.5 µM; in the test on NCI-H23 lung, 17 µM; in the test with OVCAR-3 ovarian it was 15.7 µM; with SF-295 CNS it was 34.1 µM; with SN12C renal, 17.5 µM. The values for the TGI in the test with U251 CNS and in the test with UACC-62 melanoma were 10.2 µM and 20.6 µM, respectively.
For `Nc1nc(N)c2c(-c3ccccc3)ccnc2n1`, the TGI in the test with 786-0 renal, in the test with BT-549 breast, in the test on EKVX NSCLC, in the test on HL-60(TB) leukemia, with K-562 leukemia and in the test on MCF7 breast was greater than 100 µM throughout. Further, the TGI with NCI-H226 lung, in the test on NCI-H23 lung, in the test with OVCAR-3 ovarian, with SF-295 CNS, with SN12C renal and with U251 CNS was greater than 100 µM throughout. The TGI with UACC-62 melanoma is greater than 100 µM.
Consider `CC(=O)c1sc2c(c1OC(=O)c1ccccc1)c(=O)n(-c1ccccc1)c(=S)n2-c1ccccc1`, for which the TGI in the test on 786-0 renal was 17.9 µM; in the test with EKVX NSCLC it was 69.1 µM; in the test on HCT-15 colon, 62.9 µM; with HL-60(TB) leukemia, greater than 68.1 µM; in the test with HS 578T breast, greater than 30.7 µM; with K-562 leukemia, greater than 58.3 µM. The TGI in the test on MCF7 breast is 99.8 µM; in the test on NCI-H226 lung, 8.33 µM; in the test on NCI-H23 lung, greater than 71.9 µM; in the test on OVCAR-3 ovarian, greater than 62.5 µM; in the test with SF-295 CNS, 16.7 µM; with SN12C renal, greater than 42.5 µM. Further, the figures for the TGI in the test with U251 CNS and in the test with UACC-62 melanoma were 23.7 µM and 32.8 µM, respectively.
